The subject of assay [1] is rat aorta rings with the vascular endothelium preserved. In words: Phenylephrine-induced contracture in aorta rings with preserved endothelium. To be noted: phenylephrine 10 μM; for IC50: Rattus norvegicus, with endothelium, six experiments, read-out: CI50 (μM) Average ± SEM. In kind it is cell-based. Here is the method: (§1) Once the experiments have been carried out, the findings were subject to statistical analyses being expressed in average ±SEM as a percentage of the control value, and graphs were drawn up using the Sigma Plot 5.0 program to represent the data obtained. For the statistical analysis of the effects on the different muscle tissues, the difference was assessed among the concentrations of the same derivative, using the “t” Student test. In order to ascertain the difference among the derivatives, the one-way ANOVA test was used. The differences were considered as significant for p<0.05. The Cl50 was expressed as an average ±SEM of the values obtained for each experiment through non-linear regression based on the y=yo+ae^−bx equation.
(§2) Male Wistar rats weighing between 240-280 grams were sacrificed through dislocation of the cervical column under anesthesia using ethyl ether. The aorta artery was removed and transferred to a Petri dish containing modified Tyrode's solution whose composition is described in Table 3 below, where the vessel was cleaned and the connective tissue was removed. According to the scheduled Experiment Protocol, the vascular endothelium was removed mechanically with the assistance of a polyethylene rod. The artery was divided into rings with a width of 2-3 mm. Two hooks were placed in the wall of the vessel in order to record the tension generated by the muscle in a transversal direction. To do so, one of the hooks was tied to a fixed point in the chamber and the other to a power transducer (FT 03) for recording the isometric tension. The tension generated by the muscle was transformed into a digitized electric signal (Digidata 1322A) and stored in a computer for subsequent analysis using the Axoscope 8.0 program (Axon Instruments, Inc). The chamber was filled with Krebs solution, oxygenated and kept at a temperature of 37° C.
(§3) After stabilizing the preparation, approximately 120 minutes, the Experiment Protocol began. Initially, in order to identify the presence or absence of the vascular endothelium, the preparation was exposed to phenylephrine (10 μM) and when the contracture in response to this substance was stabilized, acetylcholine (10 μM) was added to the nutrient solution. Relaxation of over 80% in response to the acetylcholine indicated the full integrity of the endothelium and relaxation of less than 10% indicated the absence of endothelium. The tissues in which the relaxation intensity fell between >10% and <80% were discarded. In order to investigate the vasodilator effect of the different L294 analogs, they were added to the experiment chambers in rising concentration after the contracture stabilization of the vessel induced by phenylephrine. The tension registered after treatment with each of the L294 analog concentrations was normalized as a function of the amplitude of the contracture triggered by phenylephrine. For the purpose of comparing the potency of some of the L294 analogs, the Cl50 was determined for each experiment using the y=yo+ae^−bx equation and their mean was used for the statistical analysis.

Assay [2] relates to rat aorta rings with preserved endothelium. Nature of the assay: KCl-induced contracture in aorta rings with preserved endothelium. In kind it is cell-based. To be noted: KCl 40 mM; for amplitude of the KCl contracture, with endothelium: 200 μM stated for L790; for IC50: Rattus norvegicus, with endothelium, six experiments, read-out: CI50 (μM) Average ± SEM. The method, then: as §1, §2, §3
The effects of the L294 analogs were investigated in rat aorta rings with preserved endothelium whose contracture was induced by increasing the extra-cellular concentration of KCl to 40 mM. Of the seven L294 analogs, this test was carried out only with the L785, L786, L789 and L790, in this group of experiments.

The subject of assay [3] is extensor digitorium longus (EDL) muscle. In words: Electrically induced twitch amplitude in fast-fiber skeletal muscle (EDL). In kind it is cell-based, mice. The method, then: Male mice weighing 22-28 g were sacrificed through cervical dislocation and the extensor digitorium longus (EDL) and soleus (SOL) muscles were dissected in a Ringer-Krebs solution, whose composition is given in Table 9, at room temperature. The muscles were placed in vertical chambers with a capacity of 10 ml, and were fixed by their ends to the stimulation electrode fixation rod and a power transducer (Grass FT03) for registering muscle twitches. The chamber solution was bubbled continuously with a carbogenic mixture (95% O2/5% CO2) and kept at a temperature of 37° C. The muscles were stimulated electrically through a stimulator (Grass S88) at a frequency of 0.2 Hz, at 37° C. After the stabilization of the muscle twitches (±30 minutes) a control record was taken in the absence of the drug, and subsequently rising concentrations (from 10 μM to 200 μM) of the L294 derivatives were added every ten minutes, diluted in DMSO. […] The signals recorded by the transducer were amplified (Cyberamp) and the isometric tension was digitized (Digidata 1322A) and stored on a computer. The screening and analysis of the experiment was handled through the use of the Axoscope 8.0 program. (Zapata-Sudo, 2003).
A measurement of the electrically-induced twitch amplitude was selected to assist the effects of the L294 analogs on the skeletal muscle inotropism. One muscle consisting of fast fibers (extensor digitorium longus-EDL) and the other of slow fibers (soleus-SOL) taken from mice were selected for this purpose. Differences in the timing of the twitches between the fast and slow muscles are shown at the faster recording speed. […] Washing the preparation with Krebs solution caused a partial reversion of the effects induced by the L786.

In assay [4] the test system is aorta rings with no preserved endothelium. In words: Phenylephrine-induced contracture in aorta rings without endothelium. In kind it is cell-based, rat. To be noted: for IC50: Rattus norvegicus, phenylephrine 10 μM, without endothelium, six experiments, read-out: CI50 (MM) Average ± SEM. The method, then: as §1, §2, §3
The importance of the presence of vascular endothelium in the vasodilatory action of the L294 analogs was assessed in experiments in which these cells were removed mechanically. […] When the findings of the experiments without the endothelium were analyzed as a whole, the absence of the L790 effect was confirmed. […] The maximum relaxation caused by the L787 and L789 analogs was less than 50% of the control, and the other analogs caused relaxation in the following decreasing order of efficacy: L785>L788>L786. Once again, attention is drawn to the marked efficiency of the L785 and L788 analogs.

The subject of the next assay is tracheal rings of a rat. In words: Acetylcholine-induced contracture of trachea rings. In kind it is cell-based. To be noted: acetylcholine 10 μM; for muscle relaxation effect on trachea rings: cumulative concentrations up to 200 μM, result in words. The method, then:
A preparation of trachea rings is used for observing the probable action of these powerful vasodilators in other smooth musculature tissues. FIG. 12 presents the typical record of the acetylcholine-induced trachea rings contracture (Ach, 10 μM) followed by exposure to rising cumulative concentrations of the L785 derivative up to 200 μM. A dose-dependent reduction may be noted in the amplitude of the acetylcholine-induced contracture.
The same protocol was used for the L786 derivative and the solvent (FIG. 13).

For assay [5], the system named is rat aorta rings with no endothelium. In words: KCl-induced contracture in aorta rings without endothelium. It counts as cell-based. To be noted: KCl 40 mM; for IC50: Rattus norvegicus, without endothelium, six experiments, read-out: CI50 (μM) Average ± SEM. The method, then: as §1, §2
as §3, with “[…] […]” for “In order to investigate the vasodilator effect of the different L294 analogs, they were added to the experiment chambers in rising concentration after the contracture stabilization of the vessel induced by phenylephrine. The tension registered after treatment with each of the L294 analog concentrations was normalized as a function of the amplitude of the contracture triggered by phenylephrine.”

For the molecule `CN(/N=C/c1cccs1)C(=O)c1ccc2c(c1)OCO2` [L785, 1,3-Benzodioxol-5-carboxylic acid, N-methyl-N′-[1-thiophene-2-yl-meth-(E)-ylidene]-hydrazide], the IC50 in assay [1] is 10.2 ± 0.5 µM; in assay [2], 34.1 ± 6.3 µM; in assay [4], 18.5 ± 3.6 µM; in assay [5], 40.5 ± 9.5 µM. The “amplitude of the KCl contracture, with endothelium” value in assay [2] was 8.1±3.8 % of the control. In addition, the “EDL twitch amplitude 200 μM (% of the control)” value in assay [3] is listed as 31.6±4.7 % of the control. Also, the “EDL twitch amplitude 30 min-Washing (% of the control)” value in assay [3] (30 min after washing) is given as 36.4 ± 4.5 % of the control. For the same molecule, the “relaxation of phenylephrine contracture, without endothelium” value in assay [4] (100 μM, result in words) is listed as “relaxation was almost total”. The “muscle relaxation effect on trachea rings” value with tracheal rings of a rat is reported as “significant dose-dependent muscle relaxation effect”. The “reversal of the contracture caused by K+, without endothelium” value in assay [5] (highest concentration 200 μM, result in words) was “unable to completely reverse the contracture”.

With `O=C(c1ccc2c(c1)OCO2)N(Cc1ccccc1)/N=C/c1cccs1` [L786, 1,3-Benzodioxol-5-carboxylic acid, N-benzyl-N′-[1-thiophene-2-yl-meth-(E)-ylidene]-hydrazide], the IC50 in assay [1] came out at 134 ± 31 µM; in assay [2], 127 ± 13.7 µM; in assay [4], 86.2 ± 7.1 µM; in assay [5], 151 ± 7.6 µM. Besides, the “maximum inhibition levels of phenylephrine contracture, with endothelium” value in assay [1] came out at 34.5±7.6%. In addition, in assay [2], the “amplitude of the KCl contracture, with endothelium” value is 51.1±2.8 % of the control. Moreover, the “effect on EDL muscle twitches” value in assay [3] (50 μM, result in words) was “reduction in the amplitude and an extension in the duration of the muscle twitches”. The “EDL twitch amplitude 200 μM (% of the control)” value in assay [3] is 28.7±9.9 % of the control. Besides, the “amplitude of the acetylcholine-induced contracture of trachea rings” value in the assay on tracheal rings of a rat (200 μM) was 25.3±12.1 % of the control. The “muscle relaxation effect on trachea rings” value in the assay with tracheal rings of a rat is “The same effect was not observed”.

Values taken from patent US20080275105A1, “Selective Muscle Relaxant and Pharmaceutical Compositions” (UNIVERSIDADE FEDERAL DO RIO DE JANEIROUFRJ, priority 2004, published 2008).
